How the values were obtained:
[1] = tested on: CD95L-expressing leukemic T cell 1A12; test: Expression level of membrane-bound CD95L on 1A12 cells by flow cytometry; assay type: cell-based; conditions: 24 h, antibodies 10 pg/mL, GM6001 10 μM
Protocol: (§1) FIG. 2. Monoclonal antibodies targeting the Metalloprotease-Cleavage Sites of CD95L (MCSCs). […] Arrows represent putative cleavage site in CD95L sequence. […] Indicated peptides were injected in mice to generate monoclonal antibodies and three different hybridoma were selected regarding their ability to bind CD95L. […] B. Recombinant Ig-CD95L (100 ng) was pre-incubated for 15 min with indicated antibodies (100 pg/mL) and then treated for 1h with the indicated MMPs. The metalloprotease-cleaved fragment of Ig-CD95L (CD95L devoid of its released Ig domain of gp190) was monitored by immunoblotting. C. CD95L-expressing leukemic T cell 1A12 was incubated for 24 h with indicated antibodies ([…]) or the pan-MMP inhibitor GM6001 (10 μM) and the expression level of membrane-bound CD95L was assessed by flow cytometry. D. Supernatants were harvested from cells treated in C and the metalloprotease-cleaved CD95L was dosed by ELISA (Diaclone).

[2] = tested on: s-CD95L release from 1A12 cells; test: Metalloprotease-cleaved CD95L dosed by ELISA in supernatants of 1A12 cells; assay type: cell-based; conditions: 1A12 cells treated 24 hours, vs isotype (anti-myc 9E10 mAb) control
Protocol: as §1

CNC(=O)[C@H](Cc1c[nH]c2ccccc12)NC(=O)[C@@H](CC(=O)NO)CC(C)C [GM6001, reference compound]
Expression level of membrane-bound CD95L [1]: augmentation of m-CD95L | Concentrations of s-CD95L in supernatant [2]: significantly reduced

Reference: patent publication US20250163169A1, “ANTIBODIES FOR PREVENTING THE CLEAVAGE OF CD95L BY METALLOPROTEASES” (INSTITUT NATIONAL DE LA SANTÉ ET DE LA RECHERCHE MÉDICALE, priority 2022, published 2025)
